Laboratory results: US9598421B2, “Imidazopyridazine compounds” (Pfizer Inc., priority 2014, dated 2017)
Where a name gives a salt, the structure may show the parent alone.

These compounds were tested against Human PDE4A (Homo sapiens (Human), UniProt P27815) (assay: PDE4A Scintillation Proximity Assay (SPA), inhibition of enzyme activity). Details: human recombinant enzyme, 1 μM cAMP substrate, 30 min at 25° C., geometric mean of 2-9 determinations unless otherwise indicated, read-out: Human PDE4A FL.
Type: biochemical
Procedure: The PDE4A3, PDE4B1, PDE4C1 and PDE4D3 assays use the Scintillation Proximity Assay (SPA) technology to measure the inhibition of human recombinant PDE4A1, PDE4B3, PDE4C1, and PDE4D3 enzyme activity by compounds in vitro. The PDE4A1, PDE4B3, PDE4C1, and PDE4D3 assays are run in parallel using identical parameters, except for the concentration of enzyme (80 pM PDE4A3, 40 pM PDE4B3, 40 pM PDE4C1 and 10 pM PDE4D). […] Reactions are incubated for 30 min at 25° C. The addition of 20 uL of 8 mg/ml yitrium silicate SPA beads (Perkin Elmer) stops the reaction. The plates are sealed (TopSeal, Perkin Elmer) and the beads are allowed to settle for 8 hrs, after which they are read on the Trilux Microbeta overnight.

Chain of Human PDE4A (P27815 other isoform, or with tags, fused parts or gaps): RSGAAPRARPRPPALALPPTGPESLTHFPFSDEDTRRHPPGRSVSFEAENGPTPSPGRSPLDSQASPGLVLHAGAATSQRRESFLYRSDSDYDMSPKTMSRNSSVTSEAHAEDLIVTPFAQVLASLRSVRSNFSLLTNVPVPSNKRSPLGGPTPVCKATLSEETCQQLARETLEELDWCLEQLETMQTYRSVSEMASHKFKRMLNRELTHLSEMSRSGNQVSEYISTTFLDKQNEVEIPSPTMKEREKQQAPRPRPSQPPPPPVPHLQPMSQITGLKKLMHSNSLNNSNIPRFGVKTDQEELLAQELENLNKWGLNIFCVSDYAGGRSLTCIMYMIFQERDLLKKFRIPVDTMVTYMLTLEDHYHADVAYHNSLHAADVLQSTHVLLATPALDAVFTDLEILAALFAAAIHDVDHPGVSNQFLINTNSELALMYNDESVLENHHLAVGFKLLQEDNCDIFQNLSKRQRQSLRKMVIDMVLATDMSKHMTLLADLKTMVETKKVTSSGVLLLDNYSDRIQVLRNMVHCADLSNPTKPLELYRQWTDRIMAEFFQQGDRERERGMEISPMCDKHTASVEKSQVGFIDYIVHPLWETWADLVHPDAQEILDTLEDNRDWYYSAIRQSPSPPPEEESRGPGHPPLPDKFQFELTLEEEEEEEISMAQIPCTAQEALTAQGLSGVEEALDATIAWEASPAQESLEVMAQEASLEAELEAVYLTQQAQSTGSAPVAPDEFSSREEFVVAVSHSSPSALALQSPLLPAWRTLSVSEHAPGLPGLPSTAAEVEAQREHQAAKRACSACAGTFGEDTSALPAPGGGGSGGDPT

Compound | IC50
O=C(NC1CC1)c1nc2cccnn2c1-c1ccc2ncnn2c1 [Example 6, N-Cyclopropyl-3-([1,2,4]triazolo[1,5-a]pyridin-6-yl)imidazo[1,2-b]pyridazine-2-carboxamide] | 64.4 nM
O=C(c1nc2cccnn2c1-c1cncc(Cl)c1)N1CCC1 [Example 15, azetidin-1-yl[3-(5-chloropyridin-3-yl)imidazo[1,2-b]pyridazin-2-yl]methanone] | 264 nM
Cc1cc(-c2c(C(=O)NC3CC3)nc3cccnn23)c(F)cc1C#N [Example 17, 3-(4-cyano-2-fluoro-5-methylphenyl)-N-cyclopropylimidazo[1,2-b]pyridazine-2-carboxamide] | 89.9 nM
Cc1cc(C#N)c(F)cc1-c1c(C(=O)NC2CC2)nc2cccnn12 [Example 19, 3-(4-cyano-5-fluoro-2-methylphenyl)-N-cyclopropylimidazo[1,2-b]pyridazine-2-carboxamide] | 16.9 nM
CN(C(=O)c1nc2cccnn2c1-c1ccc(Cl)c(F)c1)C1CC1 [Example 21, 3-(4-chloro-3-fluorophenyl)-N-cyclopropyl-N-methylimidazo[1,2-b]pyridazine-2-carboxamide] | 53.7 nM
CCCNC(=O)c1nc2cccnn2c1-c1cc(F)cc(Cl)c1 [Example 34, 3-(3-chloro-5-fluorophenyl)-N-propylimidazo[1,2-b]pyridazine-2-carboxamide] | 29.5 nM
Cc1ccc(-c2c(C(=O)NC3CC3)nc3cccnn23)cc1F [Example 41, N-cyclopropyl-3-(3-fluoro-4-methylphenyl)imidazo[1,2-b]pyridazine-2-carboxamide] | 3.13 nM
O=C(N[C@@H]1C[C@@H]1F)c1nc2cccnn2c1-c1ccc(Cl)c(F)c1 [Example 45, 3-(4-chloro-3-fluorophenyl)-N-[(1R,2S)-2-fluorocyclopropyl]imidazo[1,2-b]pyridazine-2-carboxamide] | 2.91 nM
Cc1ccc(-c2c(C(=O)N3CCC3)nc3cccnn23)cc1Cl [Example 49, azetidin-1-yl[3-(3-chloro-4-methylphenyl)imidazo[1,2-b]pyridazin-2-yl]methanone] | 4.16 nM
Cc1cc(Cl)ccc1-c1c(C(=O)N2CCC2)nc2cccnn12 [Example 56, azetidin-1-yl[3-(4-chloro-2-methylphenyl)imidazo[1,2-b]pyridazin-2-yl]methanone] | 22.7 nM
COc1ccc(-c2c(C(=O)N3CCC3)nc3cccnn23)c(F)c1 [Example 73, azetidin-1-yl[3-(2-fluoro-4-methoxyphenyl)imidazo[1,2-b]pyridazin-2-yl]methanone] | 165 nM
CCNC(=O)c1nc2cccnn2c1-c1ccc(Cl)c(F)c1 [Example 81, 3-(4-chloro-3-fluorophenyl)-N-ethylimidazo[1,2-b]pyridazine-2-carboxamide] | 7.86 nM
O=C(Nc1cn[nH]c1)c1nc2cccnn2c1-c1ccc(Cl)c(F)c1 [Example 82, 3-(4-chloro-3-fluorophenyl)-N-(1H-pyrazol-4-yl)imidazo[1,2-b]pyridazine-2-carboxamide] | 12 nM
O=C(c1nc2cccnn2c1-c1cccc(Cl)c1)N1CCC1 [Example 84, azetidin-1-yl[3-(3-chlorophenyl)imidazo[1,2-b]pyridazin-2-yl]methanone] | 16.7 nM
O=C(c1nc2cccnn2c1-c1ccc2c(c1)OC(F)(F)O2)N1CCC1 [Example 86, azetidin-1-yl[3-(2,2-difluoro-1,3-benzodioxol-5-yl)imidazo[1,2-b]pyridazin-2-yl]methanone] | 5.83 nM
O=C(c1nc2cccnn2c1-c1cc(F)c(Cl)cc1F)N1CCC1 [Example 91, azetidin-1-yl[3-(4-chloro-2,5-difluorophenyl)imidazo[1,2-b]pyridazin-2-yl]methanone] | 12.6 nM
Cc1cc(Cl)c(F)cc1-c1c(C(=O)NC(C)C)nc2cccnn12 [Example 97, 3-(4-chloro-5-fluoro-2-methylphenyl)-N-(propan-2-yl)imidazo[1,2-b]pyridazine-2-carboxamide] | 5.48 nM
Cc1cc(C#N)c(F)cc1-c1c(C(=O)NC(C)C)nc2cccnn12 [Example 99, 3-(4-cyano-5-fluoro-2-methylphenyl)-N-(propan-2-yl)imidazo[1,2-b]pyridazine-2-carboxamide] | 19.8 nM
O=C(Nc1ccn[nH]1)c1nc2cccnn2c1-c1ccc(Cl)cc1 [Example 103, 3-(4-chlorophenyl)-N-(1H-pyrazol-5-yl)imidazo[1,2-b]pyridazine-2-carboxamide] | 62.7 nM

Each compound was assayed against Human PDE4D (Homo sapiens (Human), UniProt Q08499) (assay: PDE4D Scintillation Proximity Assay (SPA), inhibition of enzyme activity). Details: human recombinant enzyme, 1 μM cAMP substrate, 30 min at 25° C., geometric mean of 2-9 determinations unless otherwise indicated, read-out: Human PDE4D FL.
Type: biochemical

Chain of Human PDE4D (Q08499 186-808): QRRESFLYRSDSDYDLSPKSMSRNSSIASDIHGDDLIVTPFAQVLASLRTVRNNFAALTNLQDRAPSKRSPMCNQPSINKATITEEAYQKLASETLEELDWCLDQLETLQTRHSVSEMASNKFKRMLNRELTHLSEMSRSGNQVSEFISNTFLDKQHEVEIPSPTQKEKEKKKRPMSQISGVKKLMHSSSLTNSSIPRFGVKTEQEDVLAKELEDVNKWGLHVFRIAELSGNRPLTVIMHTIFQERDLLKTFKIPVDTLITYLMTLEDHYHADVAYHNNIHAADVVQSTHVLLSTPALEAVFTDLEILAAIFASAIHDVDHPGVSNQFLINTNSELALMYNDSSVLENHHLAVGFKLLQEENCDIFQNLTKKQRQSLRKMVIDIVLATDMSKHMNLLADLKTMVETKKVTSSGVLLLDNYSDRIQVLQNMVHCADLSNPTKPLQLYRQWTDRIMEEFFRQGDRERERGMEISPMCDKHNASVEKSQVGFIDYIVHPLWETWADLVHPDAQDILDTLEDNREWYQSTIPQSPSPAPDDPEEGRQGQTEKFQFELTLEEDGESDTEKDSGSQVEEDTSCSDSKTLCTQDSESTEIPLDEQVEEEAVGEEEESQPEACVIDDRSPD

Compound | IC50
O=C(NC1CC1)c1nc2cccnn2c1-c1ccc(Cl)c(Cl)c1 [Example 11, N-cyclopropyl-3-(3,4-dichlorophenyl)imidazo[1,2-b]pyridazine-2-carboxamide] | 334 nM
O=C(c1nc2cccnn2c1-c1ccc2ncnn2c1)N1CCC1 [Example 16, azetidin-1-yl[3-([1,2,4]triazolo[1,5-a]pyridin-6-yl)imidazo[1,2-b]pyridazin-2-yl]methanone] | > 27500 nM
O=C(NC1CC1)c1nc2cccnn2c1-c1cnc2ccoc2c1 [Example 38, N-cyclopropyl-3-(furo[3,2-b]pyridin-6-yl)imidazo[1,2-b]pyridazine-2-carboxamide] | 11200 nM
O=C(c1nc2cccnn2c1-c1ccnc(C(F)(F)F)c1)N1CCC1 [Example 43, azetidin-1-yl{3-[2-(trifluoromethyl)pyridin-4-yl]imidazo[1,2-b]pyridazin-2-yl}methanone] | > 16900 nM
O=C(NC1CC1(F)F)c1nc2cccnn2c1-c1ccc(Cl)c(F)c1 (centres unmarked) [Example 44, 3-(4-chloro-3-fluorophenyl)-N-(2,2-difluorocyclopropyl)imidazo[1,2-b]pyridazine-2-carboxamide] | 320 nM
Cc1cc(-c2c(C(=O)N3CCC3)nc3cccnn23)ccc1Cl [Example 51, azetidin-1-yl[3-(4-chloro-3-methylphenyl)imidazo[1,2-b]pyridazin-2-yl]methanone] | 2810 nM
Cc1ccc(Cl)cc1-c1c(C(=O)N2CCC2)nc2cccnn12 [Example 64, azetidin-1-yl[3-(5-chloro-2-methylphenyl)imidazo[1,2-b]pyridazin-2-yl]methanone] | 844 nM
O=C(c1nc2cccnn2c1-c1ccc(Cl)cc1Cl)N1CCC1 [Example 65, azetidin-1-yl[3-(2,4-dichlorophenyl)imidazo[1,2-b]pyridazin-2-yl]methanone] | 3720 nM
O=C(N[C@@H]1C[C@@H]1F)c1nc2cccnn2c1-c1cncc(Cl)c1 [Example 69, 3-(5-chloropyridin-3-yl)-N-[(1R,2S)-2-fluorocyclopropyl]imidazo[1,2-b]pyridazine-2-carboxamide] | 3330 nM
Cc1ccc(-c2c(C(=O)N[C@@H]3C[C@@H]3F)nc3cccnn23)c(F)c1 [Example 72, N-[(1R,2S)-2-fluorocyclopropyl]-3-(2-fluoro-4-methylphenyl)imidazo[1,2-b]pyridazine-2-carboxamide] | 6590 nM
O=C(c1nc2cccnn2c1-c1cnc2ccnn2c1)N1CCC1 [Example 74, azetidin-1-yl[3-(pyrazolo[1,5-a]pyrimidin-6-yl)imidazo[1,2-b]pyridazin-2-yl]methanone] | 10500 nM
O=C(NC1CC1)c1nc2cccnn2c1-c1cnc2ccnn2c1 [Example 78, N-cyclopropyl-3-(pyrazolo[1,5-a]pyrimidin-6-yl)imidazo[1,2-b]pyridazine-2-carboxamide] | 6490 nM
Cc1ccc(C#N)cc1-c1c(C(=O)NC2CC2)nc2cccnn12 [Example 80, 3-(5-cyano-2-methylphenyl)-N-cyclopropylimidazo[1,2-b]pyridazine-2-carboxamide] | > 25400 nM
CCNC(=O)c1nc2cccnn2c1-c1ccc(Cl)cc1C [Example 95, 3-(4-chloro-2-methylphenyl)-N-ethylimidazo[1,2-b]pyridazine-2-carboxamide] | 14800 nM
CC(C)NC(=O)c1nc2cccnn2c1-c1cc(F)c(Cl)cc1F [Example 100, 3-(4-chloro-2,5-difluorophenyl)-N-(propan-2-yl)imidazo[1,2-b]pyridazine-2-carboxamide] | 766 nM

Same assay, conditions: read-out: Human PDE4D FL

Compound | IC50
O=C(NCCc1ccccc1O)c1nc2cccnn2c1-c1ccc(Cl)cc1 [Example 57, 3-(4-chlorophenyl)-N-[2-(2-hydroxyphenyl)ethyl]imidazo[1,2-b]pyridazine-2-carboxamide, formate salt] | > 21800 nM
Cc1cc(NC(=O)c2nc3cccnn3c2-c2ccc(Cl)cc2)no1 [Example 58, 3-(4-chlorophenyl)-N-(5-methyl-1,2-oxazol-3-yl)imidazo[1,2-b]pyridazine-2-carboxamide, trifluoroacetate salt] | 831 nM
Cn1ncc(NC(=O)c2nc3cccnn3c2-c2ccc(Cl)cc2)n1 [Example 59, 3-(4-chlorophenyl)-N-(2-methyl-2H-1,2,3-triazol-4-yl)imidazo[1,2-b]pyridazine-2-carboxamide, trifluoroacetate salt] | 749 nM
O=C(c1nc2cccnn2c1-c1ccc2nccnc2c1)N1CCC1 [Example 62, azetidin-1-yl[3-(quinoxalin-6-yl)imidazo[1,2-b]pyridazin-2-yl]methanone, formate salt] | 11000 nM
CC(=O)c1ccc(F)c(-c2c(C(=O)N3CCC3)nc3cccnn23)c1 [Example 63, 1-[3-[2-(azetidin-1-ylcarbonyl)imidazo[1,2-b]pyridazin-3-yl]-4-fluorophenyl]ethanone, formate salt] | 394 nM
Cc1ccc(-c2c(C(=O)N3CCC3)nc3cccnn23)c(C)c1Cl [Example 66, azetidin-1-yl[3-(3-chloro-2,4-dimethylphenyl)imidazo[1,2-b]pyridazin-2-yl]methanone, formate salt] | 3390 nM
O=C(c1nc2cccnn2c1-c1ccc2c(c1)OCCO2)N1CCC1 [Example 67, azetidin-1-yl[3-(2,3-dihydro-1,4-benzodioxin-6-yl)imidazo[1,2-b]pyridazin-2-yl]methanone, formate salt] | 2260 nM
